Measured values from PubChem BioAssay (NCI).
Where “and” joins values, the source holds several entries; their conditions need not be identical. Equal values may be shown once.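 These data come from cells grown in 96-well plates and exposed to compound for 48 hours at five concentrations. GI50 = concentration required for 50% inhibition of growth. TGI: concentration producing complete growth inhibition.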

What was measured:
Test in all cases: NCI tumour cell line growth inhibition, 48 h
MALME-3M melanoma = system: MALME-3M melanoma
OVCAR-5 ovarian = system: OVCAR-5 ovarian
MDA-MB-231 breast = system: MDA-MB-231 breast
IGROV1 ovarian = system: IGROV1 ovarian
HCT-15 colon = system: HCT-15 colon
MCF7 breast = system: MCF7 breast
SN12C renal = system: SN12C renal
UACC-62 melanoma = system: UACC-62 melanoma
TK-10 renal = system: TK-10 renal
SK-MEL-28 melanoma = system: SK-MEL-28 melanoma
SF-295 CNS = system: SF-295 CNS
LOX IMVI melanoma = system: LOX IMVI melanoma
RXF 393 renal = system: RXF 393 renal
SNB-75 CNS = system: SNB-75 CNS

SMILES | TGI (MALME-3M melanoma) | TGI (OVCAR-5 ovarian) [µM] | TGI (MDA-MB-231 breast) [µM] | TGI (IGROV1 ovarian) [µM] | TGI (HCT-15 colon) [µM] | TGI (MCF7 breast) [µM] | TGI (SN12C renal) [µM] | TGI (UACC-62 melanoma) [µM] | TGI (TK-10 renal) [µM] | TGI (SK-MEL-28 melanoma) [µM] | TGI (SF-295 CNS) [µM] | TGI (LOX IMVI melanoma) [µM] | TGI (RXF 393 renal) [µM] | TGI (SNB-75 CNS) [µM] | GI50 (MALME-3M melanoma) | GI50 (MDA-MB-231 breast) | GI50 (MCF7 breast) | GI50 (LOX IMVI melanoma) | GI50 (SNB-75 CNS) | GI50 (RXF 393 renal)
c1ccc(C/C(=N\Nc2nc3ccccc3[nH]2)c2ccccn2)cc1 | 2.23 µM | 8.14 | 13.4 | 0.327 | 15.6 | 0.607 | 10.9 | 2.79 | 1.83 | 11 | 6.78 | 8.1 | 1.58 |  |  |  |  |  |  | 
CCOC(=O)N1CCC2(CC1)C[C@](Sc1ccccc1)(C(C)=O)[C@H](C)O2 | > 100 µM | > 100 | > 100 | > 100 | > 100 | > 100 |  | > 100 | > 100 | > 100 | > 100 | > 100 | > 100 | > 100 |  |  |  |  |  | 
CC(C)(C)OC(=O)C1C(=O)NC(=O)CC1C(OCc1ccccc1)C(OCc1ccccc1)C(COCc1ccccc1)OCc1ccccc1 (stereo unspecified) | > 100 µM and 73 µM | > 100 | > 100 | > 100 | > 100 | > 100 | > 100 |  | > 100 | > 100 | > 100 | > 100 | > 100 | > 100 | > 100 µM and 15.7 µM | > 100 µM and 40.5 µM | 50 µM and 15.3 µM | > 100 µM and 41.8 µM | 26 µM and > 7.5 µM | 33.2 µM and 14.4 µM
O=C(CN1CCCCC1)c1ccc2[nH]c(=O)oc2c1 | > 100 µM | > 100 | > 100 | > 100 | > 100 | > 100 | > 100 | > 100 | > 100 | > 100 | > 100 | > 100 | > 100 | 87.8 |  |  |  |  |  | 
COc1cc(/C=C2\CC3C4CC=C5C[C@@H](O)CC[C@]5(C)C4CC[C@]3(C)\C2=N\O)cc(OC)c1OC (stereo partly specified) | 50 µM | 61.1 | 74 | > 100 | 38.5 | 15 | 54.1 | 24 | > 100 | > 100 | 22 | 63.2 | 25.1 | > 100 |  |  |  |  |  | 
COC(=O)C12C(=O)CC3CCC1C32C(=O)OC (stereo unspecified) | > 100 µM | > 100 | > 100 | > 100 | > 100 | > 100 | > 100 | > 100 | > 100 | > 100 | > 100 | > 100 | > 100 | > 100 |  |  |  |  |  | 
Cc1c2ccccc2c(/C=N/NC(=O)CSCC(=O)N/N=C/c2c3ccccc3c(C)c3ccccc23)c2ccccc12 | 97.3 µM | > 100 | > 75 | > 100 | > 100 | > 78.7 | > 100 | > 100 | > 95.4 | > 100 | 49.9 | > 100 | 54.9 | > 73.3 |  |  |  |  |  | 
CC(Nc1cccc(Cl)c1)c1ccncc1 (stereo unspecified) | > 100 µM | > 100 | > 100 | > 100 | > 100 | > 100 | > 100 |  | > 100 | > 100 | > 100 | > 100 | > 100 | > 100 |  |  |  |  |  | 
CN(C(=O)Cc1cc(Cl)c(Cl)cc1NC(=O)CCCN)[C@H]1CCCC[C@@H]1N1CCCC1 | 31.1 µM | > 100 | 77.4 | > 100 | > 100 | 44.2 | > 100 | 40.4 | > 100 | 33 | > 100 | 39.3 | 48.7 |  |  |  |  |  |  | 
COP(=O)(OC)[C@@](O)(c1ccccc1)[C@@H](O)[C@H](O)c1ccccc1 | > 100 µM | > 100 | > 100 | > 100 | > 100 | 63.3 | > 100 | > 100 | > 100 | > 100 | > 100 | 56.4 | > 100 | > 100 |  |  |  |  |  | 
Cc1cc(C)c2c(-c3ccccc3)cc(=O)[nH]c2c1 | > 100 µM | > 100 | > 100 | > 100 | > 100 | > 100 | > 100 | > 100 | > 100 | > 100 | > 100 | > 100 | > 100 | > 100 |  |  |  |  |  | 
CC1=NN(c2ccccc2)C(=O)/C1=C1\SC(c2ccccc2)(c2ccccc2)c2ccccc21 | > 100 µM | > 100 | > 100 | > 100 | > 100 | > 100 | > 100 | > 100 | > 100 | > 100 | > 100 | > 100 | > 100 | > 100 |  |  |  |  |  | 
Cc1cccc(C)c1NC(=S)N/C=C(\C#N)C(N)=O | > 100 µM | > 100 | > 100 | > 100 | > 100 | > 100 | > 100 | > 100 | > 100 | > 100 | > 100 | > 100 | > 100 |  |  |  |  |  |  | 
CN(C)CC1CCC/C(=C\c2ccc(Cl)c(Cl)c2)C1=O (stereo unspecified) | 20.3 µM | 37.4 | 10.9 | 12.1 | 6.33 | 5.44 | 8.79 | 12.8 | 8.19 | 11.4 | 25.8 |  |  | 21.2 |  |  |  |  |  | 
OC1C2CN3CCN(C2)CC1(c1ccccc1)C3 (stereo unspecified) | > 100 µM | > 100 | > 100 | > 100 |  | > 100 | > 100 | > 100 | > 100 | > 100 | > 100 | > 100 | > 100 | > 100 |  |  |  |  |  | 
COc1cc(O)c2c(=O)c3cccc(C)c3[nH]c2c1 | > 10 µM | > 10 | > 10 | > 10 | > 10 | > 10 | > 10 | > 10 | > 10 | > 10 | > 10 | > 10 | > 10 | > 10 |  |  |  |  |  | 
